Source: patent publication US20080292619A1, “Pharmaceutical Composition Containing Meltrin Antagonist” (MOCHIDA PHARMACEUTICAL CO., LTD., priority 2004, published 2008)

Test system: human meltrin α RNA
Assay: Suppression of human meltrin α expression by antisense compound in RD cell (real time PCR)
Format: cell-based
Details: RD cell, corrected by GAPDH
Protocol: First, RD cell (ATCC) was suspended in DMEM containing 10% fetal bovine serum (FBS, SIGMA), and the suspension was inoculated in 6 well culture plate at 2.5×10^5 cells/well/2 mL. After incubating overnight at 37° C. in the presence of 5% CO2, the cells were washed twice with serum-free DMEM, and Opti-MEM medium (GIBCO) was added at 800 μL/well.
Gene transfection reagent Lipofectin (Invitrogen) was diluted with Opti-MEM to 20 μg/mL, and the dilution was allowed to stand at room temperature for 30 minutes. Next, the antisense oligodeoxynucleotide synthesized as described above was heated at 90° C. for 3 minutes, and after quenching on ice, diluted with Opti-MEM to a concentration 10 times higher than the final concentration. Equal amounts of the Lipofectin in Opti-MEM and the antisense oligo DNA in Opti-MEM were mixed, and the mixture was incubated at room temperature for 15 minutes and added to 6 well plate at 200 μL/well.
The culture was incubated at 37° C. for 4 hours in the presence of 5% CO2, and the culture supernatant containing the Lipofectin was removed. The cells were washed twice with serum-free DMEM, and after adding 1 mL/well of Opti-MEM and incubating for 18 hours at 37° C. in the presence of 5% CO2, the cells were subjected to the measurement of the level of expression of meltrin α RNA.
After the washing, RNA was isolated from the cell by using RNA isolation kit (RNeasy Micro Kit, QIAGEN) according to the protocol of the kit, and RNA concentration was determined by measuring absorbance at a wavelength of 260 nm with a spectrophotometer (Nano prop, LMS Co., Ltd.) (1OD=40 μg/mL). After the quantitation, the RNA was prepared to a concentration of 0.1 μg/μL by using DEPC-treated water.
0.35 μg of the isolated RNA, and 3.5 μL of 10× TaqMan buffer, 7.7 μL of 25 mM MgCl2, 7.0 μL of 2.5 mM each dNTP Mix, 1.75 μL of 50 μM Random Hexamers, 0.7 μL of 20 U/μL RNase inhibitor, and 0.9 μL of 50 U/μL MultiScribe Reverse Transcriptase (all purchased from Applied Biosystems) were mixed, and water was added to make up the total volume to 35 μL. This solution was maintained at 25° C. for 10 minutes, at 48° C. for 30 minutes, and at 95° C. for 5 minutes, and reverse transcription was conducted to synthesize cDNA.
A solution in total volume of 20 μL containing 10 μL of TaqMan Universal PCR Master Mix, 0.4 μL of 10 μM TaqMan MGB Probe (sequence 5′FAM-caccgaaggacaatccca-MGB-3′: Applied Biosystems), 0.1 μL of 50 μM Forward primer (sequence ggaagccgccagattcct) for detecting meltrin α, 0.1 μL of 50 μM Reverse primer (sequence […]) for detecting meltrin α (all purchased from Sigma-Genosys), 5 μL of the cDNA solution of (3), and 4.4 μL of water was prepared, and after maintaining the solution at 50° C. for 2 minutes and at 95° C. for 10 minutes, PCR was conducted by repeating 40 cycles of 95° C. for 15 seconds and 60° C. for 1 minute in ABI Prism 7000.
The amount of the human meltrin α RNA was measured by conducting real time PCR by using the plasmid containing the cDNA coding for the human meltrin α for the template to generate the standard curve, and calculating RNA copy number of the meltrin α in each sample. The level of expression of GAPDH was also determined by using a primer and probe set for real time PCR of human GAPDH (Pre-Developed TaqMan Assay Reagents Human GAPDH (20×) (Cat# 4310884E, Applied Biosystems).
The results of the real time PCR of the meltrin α was corrected by the level of expression of the GAPDH to calculate the suppression rate. […]

Substance	suppression rate of expression, 200 nM	suppression rate of expression, 50 nM
H001: gactaggaagagcgttagtg (GACTAGGAAGAGCGTTAGTG; antisense; DNA, all phosphorothioate, methylation of C not given here)	+ (“+” when the suppression rate was at least 30%)	–
H002: actgtccgagttggcccggg (ACTGTCCGAGTTGGCCCGGG; antisense; DNA, all phosphorothioate, methylation of C not given here)	++ (“++” when the suppression rate was at least 50%)	–
H003: ccgttgcaataaatgagcaa (CCGTTGCAATAAATGAGCAA; antisense; DNA, all phosphorothioate, methylation of C not given here)	+ (“+” when the suppression rate was at least 30%)	–
H004: ctggcacaagccagccttga (CTGGCACAAGCCAGCCTTGA; antisense; DNA, all phosphorothioate, methylation of C not given here)	+++ (“+++” when the suppression rate was at least 70%)	+ (“+” when the suppression rate was at least 30%)
H006: tttccccccgtgtgtgtgcg (TTTCCCCCCGTGTGTGTGCG; antisense; DNA, all phosphorothioate, methylation of C not given here)	++ (“++” when the suppression rate was at least 50%)	++ (“++” when the suppression rate was at least 50%)
H008: gccgccgctgagctcttcta (GCCGCCGCTGAGCTCTTCTA; antisense; DNA, all phosphorothioate, methylation of C not given here)	++ (“++” when the suppression rate was at least 50%)	++ (“++” when the suppression rate was at least 50%)
H009: agccctcgcgcacggcccgc (AGCCCTCGCGCACGGCCCGC; antisense; DNA, all phosphorothioate, methylation of C not given here)	+++ (“+++” when the suppression rate was at least 70%)	+ (“+” when the suppression rate was at least 30%)
H010: cctcggcgagtcagctccgg (CCTCGGCGAGTCAGCTCCGG; antisense; DNA, all phosphorothioate, methylation of C not given here)	++ (“++” when the suppression rate was at least 50%)	++ (“++” when the suppression rate was at least 50%)
H011: gcgaccggagggatttcctg (GCGACCGGAGGGATTTCCTG; antisense; DNA, all phosphorothioate, methylation of C not given here)	++ (“++” when the suppression rate was at least 50%)	+ (“+” when the suppression rate was at least 30%)
H012: gccgagcggggccgggcgtc (GCCGAGCGGGGCCGGGCGTC; antisense; DNA, all phosphorothioate, methylation of C not given here)	+++ (“+++” when the suppression rate was at least 70%)	–
H013: ctgcaccatcccacgcgggc (CTGCACCATCCCACGCGGGC; antisense; DNA, all phosphorothioate, methylation of C not given here)	++ (“++” when the suppression rate was at least 50%)	+ (“+” when the suppression rate was at least 30%)
H014: ctcgggcccggcggcgagcg (CTCGGGCCCGGCGGCGAGCG; antisense; DNA, all phosphorothioate, methylation of C not given here)	+++ (“+++” when the suppression rate was at least 70%)	–
H015: cggccttcagtgcagcagct (CGGCCTTCAGTGCAGCAGCT; antisense; DNA, all phosphorothioate, methylation of C not given here)	+ (“+” when the suppression rate was at least 30%)	++ (“++” when the suppression rate was at least 50%)
H016: gggcgcgctgccatcgtcgc (GGGCGCGCTGCCATCGTCGC; antisense; DNA, all phosphorothioate, methylation of C not given here)	++ (“++” when the suppression rate was at least 50%)	+ (“+” when the suppression rate was at least 30%)
H017: gggcgggggacacgggcagc (GGGCGGGGGACACGGGCAGC; antisense; DNA, all phosphorothioate, methylation of C not given here)	++ (“++” when the suppression rate was at least 50%)	–
H018: cagggcgagcaggagggcgc (CAGGGCGAGCAGGAGGGCGC; antisense; DNA, all phosphorothioate, methylation of C not given here)	++ (“++” when the suppression rate was at least 50%)	+ (“+” when the suppression rate was at least 30%)
H019: ggcgcgagcagagcaccggc (GGCGCGAGCAGAGCACCGGC; antisense; DNA, all phosphorothioate, methylation of C not given here)	++ (“++” when the suppression rate was at least 50%)	–
H020: tcacccctcgggcctcgcag (TCACCCCTCGGGCCTCGCAG; antisense; DNA, all phosphorothioate, methylation of C not given here)	++ (“++” when the suppression rate was at least 50%)	–
H021: tcttccttggttccataagc (TCTTCCTTGGTTCCATAAGC; antisense; DNA, all phosphorothioate, methylation of C not given here)	+ (“+” when the suppression rate was at least 30%)	–
H023: ggtccccactccgaacagag (GGTCCCCACTCCGAACAGAG; antisense; DNA, all phosphorothioate, methylation of C not given here)	+ (“+” when the suppression rate was at least 30%)	–
H026: gtcgaatattcagcacttct (GTCGAATATTCAGCACTTCT; antisense; DNA, all phosphorothioate, methylation of C not given here)	+ (“+” when the suppression rate was at least 30%)	–
H027: ttctttgctttcccgttgta (TTCTTTGCTTTCCCGTTGTA; antisense; DNA, all phosphorothioate, methylation of C not given here)	+ (“+” when the suppression rate was at least 30%)	–
H028: ctttccagatttatgatcag (CTTTCCAGATTTATGATCAG; antisense; DNA, all phosphorothioate, methylation of C not given here)	+ (“+” when the suppression rate was at least 30%)	–
H029: tggcaatgagaccttcattt (TGGCAATGAGACCTTCATTT; antisense; DNA, all phosphorothioate, methylation of C not given here)	+ (“+” when the suppression rate was at least 30%)	–
H030: gtgggtttccgtgaaactgc (GTGGGTTTCCGTGAAACTGC; antisense; DNA, all phosphorothioate, methylation of C not given here)	+ (“+” when the suppression rate was at least 30%)	–
H031: tcagtaccgtcttgcagata (TCAGTACCGTCTTGCAGATA; antisense; DNA, all phosphorothioate, methylation of C not given here)	+ (“+” when the suppression rate was at least 30%)	–
